Test results: US20180282679A1, “CELL CULTURE APPARATUS” (The Ritsumeikan Trust, priority 2015, published 2018)

Tests used:
[1] = test system: caco-2 cells; experiment: Evaluation Test 3: absorption of dyes in tubular-form culture substrates having different inner diameters; format: in vitro ADME; settings: inner diameter 0.5, 1.0 and 2.0 mm; flow rate 0.05 mL/min, perfused for 3 minutes
Description: The inventors of the present application studied dynamic characteristics of a fluid and absorption of a drug into a culture substrate in a tubular form when a liquid such as a drug solution was caused to flow in the culture substrate. Specifically, a fluid containing a drug was caused to flow in a plurality of types of tubular-form culture substrates having different inner diameters, and the states of the culture substrates before and after the flow of the fluid were observed. In addition, dynamic characteristics of the fluid in the respective tubular-form culture substrates were obtained by calculation.
where Q is the flow rate of the liquid, μ is the viscosity of the liquid, ρ is the density of the liquid, L is the length of the tube, and r is the radius of the tube. The flow rate Q of the liquid is 0.05 mL/min, and the liquid was perfused for 3 minutes.
FIGS. 19A, 19B and 19C show images obtained by causing a fluid containing Texas Red as a model of a lipophilic drug to flow in three types of tubular-form culture substrates having different diameters, and imaging fluorescence signals from the Texas Red. […]
FIGS. 20A, 20B and 20C show images obtained by causing a fluid containing calcein as a model of a hydrophilic drug to flow in three types of tubular-form culture substrates having different inner diameters, and imaging fluorescence signals from the calcein.

[2] = test system: caco-2 cells; experiment: Evaluation Test 2: perfusion of fluorescent dyes through the tubular-form culture substrate, absorption into cultured cells; format: in vitro ADME; settings: HBSS, flow rate 0.05 mL min^-1 for 1 hour; calcein 100 μmol L^-1, Texas Red 10 μmol L^-1
Experimental: Specifically, caco-2 cells imitating intestinal epithelium were cultured on a culture substrate. Caco-2 cells produced by DS pharma biomedical Co., Ltd. were used. The caco-2 cells were cultured in DMEM (Dulbecco-modified eagle's medium) to which 10% heat inactivated fetal bovine serum, penicillin G (100 U mL^−1), streptomycin (100 μg mL^−1), and 1% non-essential amino acid were added, under an environment at 37° C., 5% CO2), and 95% air. The caco-2 cells were dissociated in EDTA and 0.05% trypsin and passaged, and then the cells were seeded on collagen that forms a culture substrate on an upper surface of a balloon actuator. The caco-2 cells reached confluence in 7 days. The culture medium was replaced every 24 hours. […]
The culture substrate in the tubular form was perfused with HBSS (Hanks' Balanced Salt Solution) containing fluorescent dyes, as a liquid corresponding to a drug solution, at a flow rate of 0.05 mL min^−1 for 1 hour. […] Thereafter, bright field images and fluorescence images of the caco-2 cells at a bottom part and an upper part of the culture substrate in the tubular form were observed.
FIGS. 16A, 16B, 16C, 16D, 16E and 16G show microscope images of the caco-2 cells. […] FIGS. 16C and 16D show images obtained by imaging fluorescence signals from calcein at the bottom part and the upper part of the culture substrate in the tubular form, respectively. […]

Row | Molecule | speed of absorption depending on inner diameter of the tubular-form culture substrate (fluorescence images) [1] | absorption in the caco-2 cells (fluorescence images at bottom part and upper part of the tubular culture substrate) [2]
1 | Texas Red | the smaller the inner diameter of the tube is, the faster the lipophilic drug is absorbed | uniformly absorbed in the caco-2 cells
2 | O=C(O)CN(CC(=O)O)Cc1cc2c(cc1O)Oc1cc(O)c(CN(CC(=O)O)CC(=O)O)cc1C21OC(=O)c2ccccc21 [calcein] | substantially no difference was observed in the speed of absorbing the hydrophilic drug | uniformly absorbed in the caco-2 cells
